From US8178077B2, “Drug development target protein and target gene, and method of screening” (Reverse Proteomics Research Institute Co., Ltd., priority 2004, dated 2012)

Molecular target: T1, FLJ39196 clone-derived protein (human neurocalcin δ) (Homo sapiens, UniProt P61601)
T1 construct: A human full-length cDNA clone was expressed as a protein with an N-terminal His tag; His tag (N); made in house; host or cells: Escherichia coli BL21star(DE3)pLysS (pDEST17 Gateway expression plasmid)
Experiment: SEC/MS interaction analysis (size exclusion spin column and mass analysis) with FLJ39196 clone-derived protein
Assay type: binding
Description: To analyze the interactions between commonly used drugs and proteins expressed from human full-length cDNA clones while keeping both the proteins and the compounds in non-modified, non-immobilized state, size exclusion chromatography (SEC) and mass analysis were used in combination (FIGS. 1, 2). The specific procedures are shown below.
The compound-protein mixture prepared in step 1 was subjected to chromatography using an SEC column, the compound and the protein were separated by SEC, and the compound that interacted with the bound compound or protein contained in the protein fraction was analyzed using a mass analyzer.
Protein concentrations were measured using BCA Protein Assay (PIERCE), in consideration of the purity calculated by SDS-PAGE.
Mass analysis was performed using LCQ DECA XP (Thermoelectron) or Q-TOFmicro (Micromass), equipped with an ESI probe. The LC pump used was Agilent 1100 (Yokogawa Analytical Systems), and the autosampler used was HTC-PAL (CTC Analytics) equipped with a cooling stacker.
In the SEC method using 384-well spin columns, Unifilter 100 (Whatman), packed with 10 μL (dry volume) of Bio-Gel P6 (BIO-RAD) and swollen with milliQ water, was used as the SEC column. 13.3 μL of a protein-free reference standard or a 25 μM protein standard and 0.7 μL of a multiplied liquid comprising 25 μM of each pharmaceutical compound (5% DMSO aqueous solution) were mixed; 9 μL of this mixture was aliquoted into the SEC spin columns. The SEC spin column was mounted on an acetonitrile-aliquoted 384-well U-bottom plate and centrifuged; the SEC spin column filtrate, which is a protein fraction, was retrieved in 50% acetonitrile. The protein precipitate produced by the acetonitrile was removed via centrifugation and filtration for deproteinization; the resulting filtrate was concentrated by centrifugation and re-dissolved in 10 μL of 50% methanol to obtain a mass analysis sample. The mobile phase supplied to the mass analyzer was 0.1% formic acid/50% methanol solution in the positive ion mode, and 0.1% ammonia/50% methanol solution in the negative ion mode; these mobile phases were used at a flow rate of 40 μL/min. 2-μL of mass analysis samples were injected using an autosampler at 2-minute intervals; the mass spectral intensity of the compound was measured to obtain the spectral intensity of the pharmaceutical compound contained in the SEC spin column filtrate (protein fraction eluted from SEC).

[1] = protein 0 μM (protein-free reference), compound 1 μM
[2] = protein 0 μM (protein-free reference), compound 10 μM
[3] = protein 0 μM (protein-free reference), compound 100 μM
[4] = protein 0 μM (protein-free reference), compound 250 μM
[5] = protein 23.75 μM, compound 1 μM
[6] = protein 23.75 μM, compound 10 μM
[7] = protein 23.75 μM, compound 100 μM
[8] = protein 23.75 μM, compound 250 μM
[9] = protein 47.5 μM, compound 10 μM
[10] = protein 47.5 μM, compound 100 μM
[11] = protein 47.5 μM, compound 250 μM

| Structure (SMILES) | spectral intensity of the compound in the SEC spin column filtrate (protein fraction) [1] | spectral intensity of the compound in the SEC spin column filtrate (protein fraction) [2] | spectral intensity of the compound in the SEC spin column filtrate (protein fraction) [3] | spectral intensity of the compound in the SEC spin column filtrate (protein fraction) [4] | spectral intensity of the compound in the SEC spin column filtrate (protein fraction) [5] | spectral intensity of the compound in the SEC spin column filtrate (protein fraction) [6] | spectral intensity of the compound in the SEC spin column filtrate (protein fraction) [7] | spectral intensity of the compound in the SEC spin column filtrate (protein fraction) [8] | spectral intensity of the compound in the SEC spin column filtrate (protein fraction) (protein 47.5 μM, compound 1 μM) | spectral intensity of the compound in the SEC spin column filtrate (protein fraction) [9] | spectral intensity of the compound in the SEC spin column filtrate (protein fraction) [10] | spectral intensity of the compound in the SEC spin column filtrate (protein fraction) [11] |
| --- | --- | --- | --- | --- | --- | --- | --- | --- | --- | --- | --- | --- |
| CCc1oc2ccccc2c1C(=O)c1cc(Br)c(O)c(Br)c1 [Benzbromarone] | 231212 | 300847 | 378850 | 461737 | 357666 | 1258120 | 10722991 | 19795682 | 412022 | 1942184 | 29076230 | 43413619 |
| NS(=O)(=O)c1cc2c(cc1Cl)N=C(CSCc1ccccc1)NS2(=O)=O [Benzthiazide] | 271261 | 505597 | 1323031 | 1475428 | 361168 | 1095223 | 9348303 | 25333199 | 249695 | 1261413 | 16067473 | 28434802 |
| CC(C)COCC(CN(Cc1ccccc1)c1ccccc1)N1CCCC1 (stereo not drawn) [Bepridil] | 9581826 | 14048756 | 358168208 | 1566782176 | 7408112 | 35655439 | 771184721 | 1841002486 | 7866658 | 40680909 | 1156825217 | 1990085657 |
| CC(O)(CS(=O)(=O)c1ccc(F)cc1)C(=O)Nc1ccc(C#N)c(C(F)(F)F)c1 (stereo not drawn) [Bicaltamide] | 196020 | 269681 | 3889442 | 1804944 | 264437 | 914364 | 18349511 | 53664833 | 390946 | 4168309 | 24933110 | 112816687 |
| CC(C)[C@@]1(NC(=O)[C@@H]2C[C@@H]3c4cccc5[nH]cc(c45)C[C@H]3N(C)C2)O[C@@]2(O)[C@@H]3CCCN3C(=O)[C@H](Cc3ccccc3)N2C1=O [Dihydroergocristine] | 25663523 | 10810305 | 75466444 | 137535150 | 68120944 | 327393156 | 910395859 | 871970698 | 95970671 | 593118709 | 1961163889 | 2985742521 |

The next lines start with the values.

| spectral intensity of the compound in the SEC spin column filtrate (protein fraction) [1] | spectral intensity of the compound in the SEC spin column filtrate (protein fraction) [2] | spectral intensity of the compound in the SEC spin column filtrate (protein fraction) [3] | spectral intensity of the compound in the SEC spin column filtrate (protein fraction) [4] | spectral intensity of the compound in the SEC spin column filtrate (protein fraction) [5] | spectral intensity of the compound in the SEC spin column filtrate (protein fraction) [6] | spectral intensity of the compound in the SEC spin column filtrate (protein fraction) [7] | spectral intensity of the compound in the SEC spin column filtrate (protein fraction) [8] | spectral intensity of the compound in the SEC spin column filtrate (protein fraction) (protein 47.5 μM, compound 1 μM) | spectral intensity of the compound in the SEC spin column filtrate (protein fraction) [9] | spectral intensity of the compound in the SEC spin column filtrate (protein fraction) [10] | spectral intensity of the compound in the SEC spin column filtrate (protein fraction) [11] | Structure (SMILES) |
| --- | --- | --- | --- | --- | --- | --- | --- | --- | --- | --- | --- | --- |
| 12908294 | 15368592 | 30558420 | 80321853 | 21615977 | 31548696 | 104338961 | 243359670 | 25013147 | 52145413 | 207034486 | 433637183 | CN(C)CC/C=C1/c2ccccc2Sc2ccc(Cl)cc21 [Chlorprothixene] |
| 18341826 | 21106520 | 134902492 | 315067466 | 15884361 | 18323956 | 118321460 | 396979100 | 24572438 | 26691498 | 256481478 | 565679716 | CC(NCCC(c1ccccc1)c1ccccc1)c1ccccc1 (stereo not drawn) [Fendiline] |
| 57845690 | 59201705 | 138331819 | 1019443291 | 38801184 | 66148127 | 474717521 | 1437323119 | 54783295 | 82852252 | 1301876646 | 1766098462 | OCCN1CCN(CC/C=C2/c3ccccc3Sc3ccc(C(F)(F)F)cc32)CC1 [Flupentixol cis-(Z)] |
| 15652447 | 95722839 | 530918568 | 1025547751 | 10946604 | 88615018 | 727082711 | 1272226745 | 10185140 | 49245292 | 427303459 | 1448860391 | Cc1cc(-c2ccccc2)nnc1NCCN1CCOCC1 [Minaprine] |
